# From patent US20090155179A1, “KINETIC BIOMARKER FOR QUANTIFICATION OF LYMPHOPROLIFERATION, CLONAL EXPANSION, RECRUITMENT AND TRAFFICKING IN LYMPHOID TISSUES AND OF THE IN VIVO ACTIONS OF ANTIGENS AND MODULATING THEREON” (KINEMED, INC., priority 2005, published 2009)
# “Also recorded” adds a separate entry of the source.
# Legend:
# [1] = system: PLN cells (draining popliteal lymph node lymphocytes); assay: kinetic PLNA (popliteal lymph node assay) with continuous 2H2O labeling after footpad immunization; format: in vivo, Balb/c mice; conditions: for PLN cellularity under drug treatment: 5 μg KLH or PBS, Rap 2 mg/kg/d p.o.
# Procedure: PLNA and heavy water labeling. The kinetic PLNA was performed as follows, except as noted in the Figure legends. In all experiments, groups of n=4 or 5 Balb/c mice were immunized subcutaneously on day 0 in the left hind footpad (toe to heel direction) with 20 μl PBS or drug vehicle (negative control group), or with 20 μl PBS containing 5-25 μg KLH (positive control group). Heavy water labeling was initiated on day 0 by intraperitoneal administration of 99.9% ^2H2O containing 0.9% w/v NaCl at 35 ml/kg body weight, and animals were maintained on 8% ^2H2O in drinking water for the remainder of the study. At day 7 post immunization, animals were bled into heparinized tubes by cardiac puncture under isoflurane anesthesia and sacrificed by cervical dislocation. The blood was centrifuged at 1500×g for 10 minutes, and heparinized plasma was stored at −20° C. for determination of body water ^2H enrichment; a second aliquot was frozen for serologic studies. Bone marrow was harvested from the right hindlimb femur by flushing the bone with 1 ml PBS using a 25 ga cannula and centrifuging the tissue and cell suspension at 450×g for 5 min.
# Analysis of PLN cells. Draining PLN were dissected from the left hind limb, mechanically dispersed, using tweezers, into ice-cold RPMI 1640 containing 10% fetal bovine serum and antibiotics. The cell suspensions were thoroughly mixed and strained through a 35 μm cell strainer fitted to a 12×75 mm polystyrene tube (BD Biosciences, San Jose, Calif.) and centrifuged at 450×g at 4° C. for 5 min. Cells were suspended in 100 μl staining buffer (PBS containing 0.5% w/v bovine serum albumin, 2 mM EDTA, and 0.05% sodium azide), blocked by addition of 20 μl mg/ml murine IgG (Sigma) and 2 μl anti-CD16/CD32 mAb (Miltenyi Biotec, City/State) at 4° C. for 15 min., and stained with anti-CD3-FITC and anti-B220-PE/Cy5 (eBioscience, 1 μl each) for 15 min. The samples were diluted to 900 μl with staining buffer, mixed thoroughly with 100 μl Flow-Count fluorospheres, and analyzed on an Epics XL flow cytometer (Beckman Coulter, City/State) for determination of absolute lymph node cell counts and percentages and absolute counts of T cells, B cells, and non-T/B cells. Absolute cell counts per lymph node were determined as:
# Analysis of ^2H incorporation into purine dR. DNA was extracted from samples of bone marrow, total PLN cells, or sorted T and B cells using DNEasy kits (Qiagen, Valencia, Calif.) according to the manufacturer's instructions. Aliquots (0.5 μg) were hydrolyzed to […] by overnight incubation at 37° C. with 0.5 units nuclease SI (Sigma) and 0.25 units potato acid phosphatase (Calbiochem) in 75 mM sodium acetate buffer, pH 4.8, containing 0.15 mM ZnSO4. […] The hydroxyl groups were acetylated using acetic anhydride and N-methylimidazole, and the resultant pentafluorobenzyl […] derivative was extracted into dichloromethane, dried under vacuum, and redissolved in 100 μl ethyl acetate. The derivative was analyzed by gas chromatography/mass spectrometry (GC/MS) as described supra, with selected ion monitoring at m/z 435 (for the parent mass isotopomer, M0) and 436 (M1). After integration of the M0 and M1 peak area using ChemStation software, the excess mole fraction of the M1 mass isotopomer (EM1) was calculated as: […]
# Calculations and statistics. Fractional turnover of PLN cell populations (f, the fraction of total, T, or B cells that have divided during the labeling period, representing clonal expansion, FIG. 1) was calculated as:
# f=EM1observed/EM1maximal,
# where EM1maximal was represented, in most experiments, by bone marrow DNA from the same animal, or assumed to equal 0.14. Alternatively, for mice labeled for less than four days, EM1maximal was represented by 0.9× the EMI value predicted from the animal's body water ^2H enrichment (the factor of 0.9 represents dilution by salvage).
# [2] = system: xenografted human tumor cells; assay: f of xenografted human tumor cells in mice; format: in vivo; conditions: 10 mg/kg/d, i.p.; previously seen
# PLN cells = assay: kinetic PLNA with 2H2O labeling after KLH immunization in C57BI/6 mice; format: in vivo, C57BI/6 (B6) mice; conditions: B6 mice
# [3] = tolerability of maintained 2H2O body water enrichment; format: in vivo; conditions: 1-10% of total body water labeled, weeks or months, humans (>100 people) and experimental animals
# Excerpt: Relatively high body water enrichments of ^2H2O (e.g., 1-10% of the total body water is labeled) may be achieved relatively inexpensively using the techniques of the invention. […] This finding in a large number of human subjects (>100 people) is contrary to previous concerns about vestibular toxicities at high doses of ^2H2O. One of the Applicants has discovered that as long as rapid changes in body water enrichment are prevented (e.g., by initial administration in small, divided doses), high body water enrichments of ^2H2O can be maintained with no toxicities. For example, the low expense of commercially available ^2H2O allows long-term maintenance of enrichments in the 1-5% range at relatively low expense.
# [4] = day 7, Dex 0.3 mg/kg/d p.o., Tax 10 mg/kg/d i.p., OHU 500 mg/kg/d i.p.
compound,measurement,setting,value
CC(=O)O[C@H]1C(=O)[C@@]2(C)[C@H]([C@H](OC(=O)c3ccccc3)[C@]3(O)C[C@H](OC(=O)[C@H](O)[C@@H](NC(=O)c4ccccc4)c4ccccc4)C(C)=C1C3(C)C)[C@]1(OC(C)=O)CO[C@@H]1C[C@@H]2O [paclitaxel],PLN cellularity under drug treatment,[1]; [4],reduced
same,f (clonal expansion) of PLN cells under drug treatment,"[1]; stimulation not specified, Tax 10 mg/kg/d i.p., Dex 0.3 mg/kg/d p.o., day 7",did not affect f
same,f of xenografted human tumor cells in mice,[2],strong inhibition
NC(=O)NO [hydroxyurea],PLN cellularity under drug treatment,[1]; [4],modest and variable effects
same,f of total PLN cells after KLH stimulation,"[1]; 5 μg KLH, daily drug to day 7: Rap 2 mg/kg/d p.o., OHU 500 mg/kg/d i.p.",strongly inhibited
same,f of total PLN cells at baseline,"[1]; sham-immunized (PBS), daily drug to day 7: Rap 2 mg/kg/d p.o., OHU 500 mg/kg/d i.p.",strongly inhibited
keyhole limpet hemocyanin [KLH],proliferation response to low doses of KLH,"[1]; Balb/c, 0.2-2 μg KLH",increase in f without a change in PLN cellularity
same,proliferation response to higher doses of KLH,"[1]; Balb/c, 5-25 μg KLH or with incomplete Freund's adjuvant",f reached a plateau
same,increase of PLN cellularity,"[1]; Balb/c, KLH doses that increased cellularity",2- to 3 fold
same,antigen dose at which cellularity was maximal,"[1]; Balb/c, KLH in PBS, day 7",around 25 μg
same,antigen dose at which f was maximally increased,"[1]; Balb/c, KLH, as little as",600 ng
same,CD4+ T cell f,"[1]; Balb/c, KLH-immunized, day 7, other attempts, vs. 7.5%±1.3% without KLH, p=0.017",11.3%±2.1
same,proliferating cells as share of cells in the PLN,"[1]; Balb/c, any KLH dose, day 7",≤ 20%
same,f in total PLN cells after immunization,"[1]; Balb/c, footpad immunization, day 7",elevated to a dose-independent plateau; also recorded: significant; also recorded: increased f
same,f in PLN B cells after immunization,"[1]; Balb/c, sorted B cells, day 7",pronounced increase; also recorded: Significant KLH effect; also recorded: significantly increased
same,f in CD4+ T cells after immunization,"[1]; Balb/c, sorted CD4+ T cells, day 7",smaller increase
same,f in CD8+ T cells after immunization,"[1]; Balb/c, sorted CD8+ T cells, day 7",not in CD8^+ T cells
same,f in total T cells after immunization,"[1]; Balb/c, sorted T cells, day 7",smaller increase; also recorded: Significant KLH effect
same,f in sorted B cells and total T cells,"PLN cells; 200 μg KLH, day 7",Neither B cells nor T cells showed a substantial increase
same,"f in PLN cells after KLH immunization, day 7","PLN cells; 2-200 μg KLH, day 7",no significant increase; also recorded: lower
same,cellularity in PLN,PLN cells; 7 days after KLH immunization,dose-dependent
same,"f in PLN cells, time course","PLN cells; KLH, day 4",transient increase
"O=[N+]([O-])c1ccc(Cl)c([N+](=O)[O-])c1 [DNCB, 2,4-dinitrochlorobenzene]",dose above which f reached a plateau,"[1]; Balb/c, DNCB in PBS:DMSO, day 7",above 100 μg
[2H]O[2H] [^2H2O],toxicity of maintained body water enrichment,[3],without any evidence of toxicity
